Results taken from patent US20040033273A1, “Withasol and methods of use” (AyurCore, Inc., priority 2001, published 2004).
Like-named read-outs stand apart in the source and are kept apart here.

Legend:
[1] = system: BALB/c mouse implanted with ascitic sarcoma, CP treated
Protocol: This example describes dosing studies of WITHASOL in cyclophosphamide (CP) treated antigenically challenged BALB/c mouse animals implanted with ascitic sarcoma.
Following the established protocol, tumor was implanted on day 0. Test drugs as suspensions in 2.0% sterile CMC (vehicle) were prepared by Bio-Ved Laboratories. Antigenically sensitized (day 1) and challenged (day 10) mice, received test substances from day 1 to day 15 per oral route. Animals received appropriate vehicle (2.0% CMC) or CP (150 mg/kg) i.p. on day 11 and blood was collected on day 16. Body weights and gross observations were monitored during treatment.
Four doses, 400 mg/kg, 200 mg/kg, 100 mg/kg and 50 mg/kg of WITHASOL coded as R-1, R-2, R-3 and R-4, respectively, were used for this study. Decoding was done after the study was completed.
Data analysis was carried out using ANOVA single factor @<0.05 for comparison of the groups.

[2] = system: BALB/c mouse implanted with ascitic sarcoma (S-180), CP treated; conditions: for Hb / Platelet Count (×10^3/mcl) / RBC Count (×10^6/mcl) / WBC Difference Count (%) Lymphocytes / WBC Difference Count (%) Polymorph / WBC Total Count (×10^3/mcl) / CF Titre (Log2) / HA Titre (Log2) / Difference in Weight (g) from Day 1 to 16: mean +/- SD
[3] = groups I and II: CP 150 mg/kg ip day 11 in tumor-free animals, day 16
[4] = groups III and IV: CP 150 mg/kg ip day 11 in tumor-bearing animals
[5] = groups III and IV: CP 150 mg/kg ip day 11 in tumor-bearing animals, day 16
[6] = Tumor +, CP +: CP 150 mg/kg ip day 11, coded drug 100 mg/kg (vehicle for CP alone) po day 1-15, blood day 16
[7] = Tumor +, CP +: CP 150 mg/kg ip day 11, coded drug 100 mg/kg (vehicle for CP alone) po day 1-15, serum day 16
[8] = Tumor −, CP +, vehicle: CP 150 mg/kg ip day 11, blood day 16
[9] = Tumor −, CP +, vehicle: CP 150 mg/kg ip day 11, serum day 16
[10] = groups I and II: CP 150 mg/kg ip day 11 in tumor free animals, day 16

O=P1(N(CCCl)CCCl)NCCCO1 (stereo not shown) [CP, cyclophosphamide]
change in HA antibody titres [1, 3]: decreased | change in HL antibody titres [1, 3]: decreased | change in hemoglobin content [1, 3]: decreased | change in platelet counts [1, 3]: increased | change in red cell counts [1, 3]: decreased | change in white cell differential counts [1, 3]: no significant change | change in white cell total counts [1, 3]: decreased | change in body weights [1, 4]: decreased | change in HA antibody titres [1, 5]: decreased | change in HL antibody titres [1, 5]: decreased | change in hemoglobin content [1, 5]: no significant change | change in lymphocyte percentage [1, 5]: increased | change in platelet counts [1, 5]: no significant change | change in polymorph percentage [1, 5]: decrease | change in red cell counts [1, 5]: no significant change | change in white cell total counts [1, 5]: decrease | Hb [2, 6]: 11.07 ± 3.812 g/dL | Platelet Count (×10^3/mcl) [2, 6]: 614.17 +/− 287.466 ×10^3/mcl | RBC Count (×10^6/mcl) [2, 6]: 3.54 +/− 1.332 ×10^6/mcl | WBC Difference Count (%) Lymphocytes [2, 6]: 58.18 +/− 8.634% | WBC Difference Count (%) Polymorph [2, 6]: 41.42 +/− 8.634% | WBC Total Count (×10^3/mcl) [2, 6]: 4.53 +/− 0.797 ×10^3/mcl | CF Titre (Log2) [2, 7]: 1.83 +/− 0.408 Log2 | HA Titre (Log2) [2, 7]: 2.17 +/− 0.837 Log2 | Difference in Weight (g) from Day 1 to 16 ([2]; Tumor +, CP +: S-180 bearing antigen-challenged mice, CP 150 mg/kg ip day 11, coded drug 100 mg/kg (vehicle for CP alone) po day 1-15): -0.83 ± 2.563 g | Hb [2, 8]: 13.8 ± 1.103 g/dL | Platelet Count (×10^3/mcl) [2, 8]: 966.33 +/− 324.879 ×10^3/mcl | RBC Count (×10^6/mcl) [2, 8]: 4.37 +/− 0.718 ×10^6/mcl | WBC Difference Count (%) Lymphocytes [2, 8]: 63.73 +/− 2.7897% | WBC Difference Count (%) Polymorph [2, 8]: 36.2 +/− 2.7897% | WBC Total Count (×10^3/mcl) [2, 8]: 3.8 +/− 1.226 ×10^3/mcl | CF Titre (Log2) [2, 9]: 1.00 Log2 | HA Titre (Log2) [2, 9]: 1.5 +/− 5.48 Log2 | Difference in Weight (g) from Day 1 to 16 ([2]; Tumor −, CP +, vehicle: CP 150 mg/kg ip day 11): -0.5 ± 0.837 g | change in body weights ([2]; groups I and II: CP 150 mg/kg ip day 11 in tumor free animals): decrease | change in HA antibody titers [2, 10]: decreased | change in HL antibody titers [2, 10]: decreased | change in hemoglobin content [2, 10]: No significant change | change in lymphocyte percent [2, 10]: decreased | change in platelet counts [2, 10]: No significant change | change in polymorph percent [2, 10]: Increased | change in red cell counts [2, 10]: lowered | change in white cell total counts [2, 10]: lowered | change in body weight [2, 4]: decreased | change in HA antibody titers [2, 5]: decreased | change in HL antibody titers [2, 5]: decreased | change in hemoglobin content [2, 5]: No significant change | change in lymphocyte percentage [2, 5]: increase | change in platelet counts [2, 5]: Decreased | change in polymorph percentage [2, 5]: Decreased | change in red cell counts [2, 5]: No significant change | change in white counts [2, 5]: Decreased
